Results published in patent US20220213052A1, “INHIBITORS OF RNA-BINDING PROTEINS, COMPOSITIONS THEREOF, AND THERAPEUTIC USES THEROF” (The University of North Carolina at Chapel Hill, priority 2019, published 2022).

Columns and labels:
[1] = target: T1, HuR protein bound to ARE^Msi1-Biotin (Homo sapiens, UniProt Q15717); experiment: RNA immunoprecipitation (RNA-IP) pull-down assay; type: cell-based; settings: 20 μM
T1 construct: endogenous in cells; cytoplasmic lysate
Method: Pull-down Assay #1—RNA Immunoprecipitation (RNA-IP): Cells with HuR overexpression will be treated with compounds, then the cell cytoplasmic lysates were collected using NE-PER Nuclear and Cytoplasmic Extraction Kit (Thermo Scientific), and subsequently to the cell cytoplasmic lysates were added the biotinylated target ARE oligo from Msi1 mRNA (ARE^Msi1-Biotin). Following this, streptavidin beads were added to pull down HuR protein bound to ARE^Msi1-Biotin. Unlabeled target AREs used as positive control. Compounds of the present technology block the HuR pull-down by the biotinylated ARE oligo, illustrating inhibition of the HuR-mRNA interaction. For example, using 20 μM KH-39, 20 μM KH-56, and 10 μM KH-58 in such a RNA-IP assay provided the data illustrated in FIG. 5. The numbers immediately below the pictured bands in FIG. 5 are calculated by diving the band intensity of the particular sample by the band intensity of the DMSO treated sample (entry 3). […]

[2] = target: T2, RNA-binding protein Lin-28 homolog B (LIN28B) (Homo sapiens, UniProt Q6ZN17); experiment: LIN28B FP assay
T2 sequence (Q6ZN17 1-250): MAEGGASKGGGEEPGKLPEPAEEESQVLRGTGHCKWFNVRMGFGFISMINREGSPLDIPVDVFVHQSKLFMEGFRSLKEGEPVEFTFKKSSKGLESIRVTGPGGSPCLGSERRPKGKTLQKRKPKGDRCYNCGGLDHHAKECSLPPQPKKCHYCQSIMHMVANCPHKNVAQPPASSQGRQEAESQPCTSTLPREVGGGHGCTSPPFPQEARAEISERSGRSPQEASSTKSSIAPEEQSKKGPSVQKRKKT

[3] = target: T3, HuR-bound target mRNAs in MDA-MB-231 cells (Homo sapiens, UniProt Q15717); experiment: Ribonucleoprotein immunoprecipitation (RNP-IP) pull-down assay; type: cell-based; settings: 10 μM
T3 construct: endogenous in cells; host or cells: MDA-MB-231
T3 sequence (Q15717 2-326 limits assumed): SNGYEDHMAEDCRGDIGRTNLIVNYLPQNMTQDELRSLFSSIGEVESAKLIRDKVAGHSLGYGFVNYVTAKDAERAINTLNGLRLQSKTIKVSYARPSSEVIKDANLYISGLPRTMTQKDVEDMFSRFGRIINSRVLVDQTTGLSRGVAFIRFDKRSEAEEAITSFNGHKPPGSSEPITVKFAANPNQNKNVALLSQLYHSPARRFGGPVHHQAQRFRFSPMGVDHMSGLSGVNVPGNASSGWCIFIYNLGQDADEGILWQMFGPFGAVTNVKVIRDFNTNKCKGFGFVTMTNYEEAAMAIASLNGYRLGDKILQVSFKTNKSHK
Method: Pull-down Assay #2—Ribonuleoprotein Immunoprecipitation (RNP-IP): Cells with HuR overexpression were treated with compounds, then the cell cytoplasmic lysates collected using NE-PER Nuclear and Cytoplasmic Extraction Kit (Thermo Scientific), then the cell cytoplasmic lysates incubated with anti-HuR antibody, and subsequently Protein G agarose beads (from Roche) added to pull down HuR protein. The HuR-bound target mRNAs pulled down were measured by qRT-PCR using a reported method (Ji, Q., et al., MicroRNA miR-34 inhibits human pancreatic cancer tumor-initiating cells. PLoS One, 2009. 4(8): p. e6816, incorporated herein by reference). Mouse IgG will be used as negative control. Compounds of the present technology block the target mRNAs pulled down by HuR antibody.

MDA-MB-231 cells = experiment: Matrigel invasion assay; type: cell-based; settings: 10 μM; 24 h pretreatment, 20 h incubation
Method: To examine the anti-metastatic effect of compounds of the present technology, an invasion assay using Matrigel Invasion Chambers coated with Matrigel Matrix was performed. To perform the assays, MDA-MB-231 cells pretreated with compounds for 24 hours are added to the chambers and then incubated for 20 hours. Cells that remained on the upper surface of the chamber are completely removed with a cotton swab. Cells that emigrated or invaded through the membrane/Matrigel to the bottom of the chamber were fixed and stained with 0.2% crystal violet and photographed.

T1 sequence (Q15717 2-326 limits assumed): as above

`CC(C)(C)c1ccc(C(=O)Nc2ccc3[nH]c(C(=O)NO)cc3c2)cc1` [KH-39, 5-(4-(tert-butyl)benzamido)-N-hydroxy-1H-indole-2-carboxamide] was tested, and the “ARE^Msi1-Biotin mediated pull-down of HuR protein” value [1] was “block ARE^Msi1-Biotin mediated pull-down of HuR protein”, the Ki [2] was greater than 20 µM and the “HuR pull-down of target mRNAs” value [3] was “at least partially block HuR pull-down of target mRNAs”. The MDA-MB-231 cell invasion (MDA-MB-231 cells) was “clearly inhibited MDA-MB-231 cell invasion”.
